The source of these data is patent publication US8119630B2 (Arrow Therapeutics Limited, priority 2002, dated 2012).

In series [1] the test system is RSV. Put plainly: XTT assay, RSV-infected Hep-2 cells. Format: cell-based, Respiratory Syncytial Virus (RSV). The note with it: Table 2, Examples 75 to 82 and 125 to 184, Hep-2 cells infected with RSV, 6 days at 37° C. How it is done:
Examples 75 to 82 and 125 to 184 were tested according to the protocol described below.
(§1) The inner 60 wells of 96 well tissue culture plates were seeded with Hep-2 cells at 4×10^4 cells/well for compound activity and toxicity studies in 100 μl of medium and incubated at 37° C. overnight or until nearing confluency.
Cells were infected with 25 μl RSV previously titrated to give 80% cell kill. To each well 25 μM of test compound were added. The final DMSO concentration was 0.5%. Some 200 μl of sterile distilled water were added to the outer wells of the plate and incubated at 37° C. for 6 days. Some 0.25 μl/ml PMS were added to stock […] solution, final conc. 25 μM PMS. Then 25 μl warmed XTT/PMS solution were added to each well and incubated for 1 hour at 37° C.
Maximum OD450nm reading (uninfected, untreated control cells) corresponded to 100% inhibition. Minimum OD450nm readings (infected control cells) corresponded to 0% inhibition. Log 10 concentration was plotted against OD450nm and IC50 values were calculated from either reading 50% value from graph or using regression analysis.
A general note: Tetrazolium dyes change colour on reduction, which living cells bring about.

For another series, the system named is Hep-2 cells. As to the kind of experiment: Toxicity studies (XTT), Hep-2 cells. The class given is cell-based. The arrangement: TC50 (6d): unit not given beside the values. The note with it: for TC50 (6d): Table 2, Examples 75 to 82 and 125 to 184, 6d; for TC50 (2d): Table 2, Examples 75 to 82 and 125 to 184, 2d. How it is done:
as §1
Cells were infected with 25 μl RSV previously titrated to give 80% cell kill. To each well 25 μM of test compound were added. The final DMSO concentration was 0.5%. […] Some 0.25 μl/ml PMS were added to stock […] solution, final conc. 25 μM PMS. Then 25 μl warmed XTT/PMS solution were added to each well and incubated for 1 hour at 37° C.

Another series relates to Vero cells. Put plainly: Simultaneous toxicity investigation (XTT), Vero cells. Format: cell-based. The arrangement: unit not given here. The note with it: for TC50 (2d): Table 2, Examples 83 to 124, 2d; for TC50 (6d): Table 2, Examples 83 to 124, 6d. The procedure: The inner 60 wells of 96 well tissue culture plates were seeded with Vero cells at 3×10^4 cells/well (1×10^4 cells/well for toxicity studies) in 100 or 150 μl of medium and incubated at 37° C. overnight or until nearing confluency. For primary screen, 25 μl compounds were added directly to 100 μl medium in single wells to duplicate plates. A third plate was prepared for simultaneous toxicity investigation.
For follow-up investigation, 70 μl of compound in duplicate wells were added directly to culture medium at 3.2× final concentration and ½ log serially diluted down columns of plate. A duplicate plate was prepared for simultaneous toxicity investigation.
Cells were infected with 25 μl RSV to give m.o.i.≈0.2. […] Some 0.25 μl/ml PMS were added to stock XTT solution, final conc. […]. Then 25 μl warmed XTT/PMS solution were added to each well and incubated for 5 hours at 37° C. Plates were shaken (DynaTech Vari-Shaker) vigorously for 10 mins and allowed to cool for 15 mins before sealing. Absorbance at 450 nm was measured and data analysed using Microsoft Excel software.

Series [2] has as its system RSV. As to the kind of experiment: XTT assay, RSV-infected Vero cells. The class given is cell-based, Respiratory Syncytial Virus (RSV). Particulars: human respiratory syncytial virus, Vero, 144 h, read-out: XTT IC50 (uM), Table 2, Examples 83 to 124; Vero cells infected with RSV, m.o.i.≈0.2, 6 days at 33° C. Summed up:
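Vero cells infected with RSV at m.o.i.≈0.2 in presence of serially ½-log diluted compound, incubated 6 days at 33 °C. Viability read by XTT/PMS (5 h, 37 °C) at OD450; uninfected untreated cells = 100%, infected controls = 0% inhibition. IC50 from graph or regression; parallel uninfected plates for toxicity.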

[3] abbreviates: human respiratory syncytial virus, 144 h.

Usually IC50 stands for the concentration that gives 50% inhibition.

In turn, `CCOC(=O)NC1N=C(c2ccccc2)c2ccccc2NC1=O` (centres unmarked) [Example 182, (2-Oxo-5-phenyl-2,3-dihydro-1H-benzo[e][1,4]diazepin-3-yl)-carbamic acid ethyl ester] registered an IC50 in the series on RSV [1] (setting [3]) of 10 µM. Further, the “TC50 (6d)” value with Hep-2 cells (in µM) was >50.
`CCNC(=O)NC1N=C(c2ccccc2)c2ccccc2NC1=O` (centres unmarked) [Example 150, 1-Ethyl-3-(2-oxo-5-phenyl-2,3-dihydro-1H-benzo[e][1,4]diazepin-3-yl)-urea] yielded an IC50 in the series with RSV [1] (setting [3]) of 2 µM. Besides, the TC50 (2d) in the series with Hep-2 cells is > 100 µM. Also, the “TC50 (6d)” value in the series with Hep-2 cells (in µM) is >100.
In the series with RSV [1], “N-[5-(3-Chloro-phenyl)-2-oxo-5-phenyl-2,3-dihydro-1H-benzo[e][1,4]diazepin-3-yl)acetamide [Example 154]” returned an IC50 of 3 µM. Besides, the TC50 (2d) in the series on Hep-2 cells is > 100 µM. Besides, the “TC50 (6d)” value in the series on Hep-2 cells (in µM) was >100.
`COC(=O)NC1N=C(c2ccccc2)c2ccccc2NC1=O` (centres unmarked) [Example 181, (2-Oxo-5-phenyl-2,3-dihydro-1H-benzo[e][1,4]diazepin-3-yl)-carbamic acid methyl ester]: the IC50 in the series with RSV [1] (setting [3]) came out at 9.6 µM. In addition, in the series on Hep-2 cells (in µM), the “TC50 (6d)” value is listed as >50.
Taken in the same sequence, the figures for `O=C(NC1N=C(c2ccccc2)c2ccccc2NC1=O)c1cccc2c1C(=O)c1ccccc1-2` (centres unmarked) [Example 176, 9-Oxo-9H-fluorene-1-carboxylic acid (2-oxo-5-phenyl-2,3-dihydro-1H-benzo[e][1,4]diazepin-3-yl)-amide] were 4.3 µM and 99.
Regarding `CN(C(=O)Nc1ccccc1F)C1N=C(c2ccccc2)c2ccccc2NC1=O` (centres unmarked) [Example 146, 3-(2-Fluoro-phenyl)-1-methyl-1-(2-oxo-5-phenyl-2,3-dihydro-1H-benzo[e][1,4]diazepin-3-yl)-urea], in the series with RSV [1] (setting [3]), the midpoint of inhibition, the IC50, lay at 9.5 µM. Further, in the series on Hep-2 cells, the TC50 (2d) is > 50 µM.
In turn, `Cc1cc(C(=O)NC2N=C(c3ccccc3)c3ccccc3NC2=O)oc1C` (centres unmarked) [Example 152, 4,5-Dimethyl-furan-2-carboxylic acid (2-oxo-5-phenyl-2,3-dihydro-1H-benzo[e][1,4]diazepin-3-yl)amide] registered a 50% inhibitory concentration (IC50) in the series with RSV [1] (setting [3]) of 0.3 µM. Also, in the series on Hep-2 cells, the TC50 (2d) was > 100 µM. In addition, the “TC50 (6d)” value with Hep-2 cells (in µM) was 100.
In the series with RSV [1], “N-[5-(3-Chloro-phenyl)-2-oxo-5-phenyl-2,3-dihydro-1H-benzo[e][1,4]diazepin-3-yl]isonicotinamide [Example 160]” yielded an IC50 of 10 µM. In addition, the TC50 (2d) in the series on Hep-2 cells was > 100 µM. Further, in the series with Hep-2 cells (in µM), the “TC50 (6d)” value is reported as >100.
Taken in the same sequence, the figures for “Furan-2-carboxylic acid [5-(3-chloro-phenyl)-2-oxo-5-phenyl-2,3-dihydro-1H-benzo[e][1,4]diazepin-3-yl]-amide [Example 156]” were 1.5 µM, 100 µM and 100.
In the series with RSV [1], `COC(=O)c1ccc(C(=O)NC2N=C(c3ccccc3)c3ccccc3NC2=O)c(OC)c1` (centres unmarked) [Example 139, 3-Methoxy-N-(2-oxo-5-phenyl-2,3-dihydro-H-benzo[e][1,4]diazepin-3-yl)-terephthalamic acid methyl ester] yielded an IC50 of 9.2 µM. Moreover, the “TC50 (6d)” value in the series with Hep-2 cells (in µM) was 98.
“5-Methyl-furan-2-carboxylic acid (2-oxo-5-phenyl-2,3-dihydro-1H-benzo[e][1,4]diazepin-3-yl)-amide [Example 161]”: the IC50 in the series with RSV [1] was determined as 2 µM. The same molecule showed a TC50 (2d) in the series on Hep-2 cells of 100 µM. Further, the “TC50 (6d)” value with Hep-2 cells (in µM) is 60.
Consider `CCCOc1ccccc1C(=O)NC1N=C(c2ccccc2)c2ccccc2NC1=O` (centres unmarked) [Example 137, N-(2-Oxo-5-phenyl-2,3-dihydro-1H-benzo[e][1,4]diazepin-3-yl)-2-propoxy-benzamide], for which, in the series on RSV [1] (setting [3]), inhibition was half-maximal at 8.3 µM (IC50). For the same molecule, in the series on Hep-2 cells (in µM), the “TC50 (6d)” value is on record as >50.
The like results for `O=C(Nc1cccc(F)c1)NC1N=C(c2ccccc2)c2ccccc2NC1=O` (centres unmarked) [Example 128, 1-(3-Fluoro-phenyl)-3-(2-oxo-5-phenyl-2,3-dihydro-1H-benzo[e][1,4]diazepin-3-yl)-urea] were, in that order, 6.1 µM and >50.
The molecule `O=C(NC1CCCCC1)NC1N=C(c2ccccc2)c2ccccc2NC1=O` (centres unmarked) [Example 149, 1-Cyclohexyl-3-(2-oxo-5-phenyl-2,3-dihydro-1H-benzo[e][1,4]diazepin-3-yl)-urea] displayed an IC50 in the series on RSV [1] (setting [3]) of 1.5 µM. The TC50 (2d) in the series on Hep-2 cells was > 100 µM. The “TC50 (6d)” value in the series on Hep-2 cells (in µM) is reported as >100.
The molecule `COc1cccc(C2=NC(NC(=O)C(C)C)C(=O)Nc3ccccc32)c1` (centres unmarked) [Example 163] came in with an IC50 with RSV [1] of 5 µM. Further, in the series with Hep-2 cells, the “TC50 (2d)” value is reported as >100 and the “TC50 (6d)” value is >100.
In turn, “1-(2-Oxo-5-phenyl-2,3-dihydro-1H-benzo[e][1,4]diazepin-3-yl)-3-m-tolyl-urea [Example 141]” showed an IC50 in the series with RSV [1] of 4.3 µM. Also, the “TC50 (6d)” value in the series with Hep-2 cells (in µM) is >50.
In the series with RSV [1] (setting [3]), `O=C(N[C@H]1N=C(c2ccccc2)c2ccccc2NC1=O)c1cc(F)c(F)cc1F` [Example 79b, (S)-2,4,5-Trifluoro-N-(2-oxo-5-phenyl-2,3-dihydro-1H-benzo[e][1,4]diazepin-3-yl)-benzamide] registered an IC50 of 5.8 µM. The “TC50 (6d)” value in the series on Hep-2 cells (in µM) was >50.
Turning to `O=C(NC1N=C(c2ccccc2)c2ccc(Cl)cc2NC1=O)C1CCCCC1` (centres unmarked) [Example 168, Cyclohexanecarboxylic acid (8-chloro-2-oxo-5-phenyl-2,3-dihydro-1H-benzo[e][1,4]diazepin-3-yl)-amide], in the series on RSV [1] (setting [3]), 5 µM corresponded to half-maximal inhibition (IC50). In the series with Hep-2 cells, the TC50 (2d) was > 100 µM. Moreover, the “TC50 (6d)” value with Hep-2 cells (in µM) is >100.
The molecule `COc1cc2ccccc2cc1C(=O)N[C@H]1N=C(c2ccccc2)c2ccccc2NC1=O` [Example 82b, (S)-3-Methoxy-naphthalene-2-carboxylic acid (2-oxo-5-phenyl-2,3-dihydro-1H-benzo[e][1,4]diazepin-3-yl)-amide] came in with a half-inhibitory concentration (IC50) with RSV [1] (setting [3]) of 1.5 µM. In addition, in the series with Hep-2 cells (in µM), the “TC50 (6d)” value is >50.
Taken in the same sequence, the figures for `O=C(NC1N=C(c2ccccc2)c2ccccc2NC1=O)c1ccccc1O` (centres unmarked) [Example 80a, 2-Hydroxy-N-(2-oxo-5-phenyl-2,3-dihydro-1H-benzo[e][1,4]diazepin-3-yl)-benzamide] were 8.7 µM and 33.
As to `COc1ccc(Cl)cc1C(=O)NC1N=C(c2ccccc2)c2ccccc2NC1=O` (centres unmarked) [Example 91, 5-chloro-2-methoxy-N-(2-oxo-5-phenyl-2,3-dihydro-1H-benzo[e][1,4]diazepin-3-yl)benzamide], in the series on Vero cells, the “TC50 (2d)” value came to 100 and the “TC50 (6d)” value came out at 100. Moreover, in the series with RSV [2], the IC50 is 0.3 µM.
With `COc1ccccc1C(=O)NC1N=C(c2ccccc2)c2ccc(C)cc2NC1=O` (centres unmarked) [Example 111, 2-Methoxy-N-(8-methyl-2-oxo-5-phenyl-2,3-dihydro-1H-benzo[e][1,4]diazepin-3-yl)-benzamide], in the series with Vero cells, the “TC50 (2d)” value is reported as >100 and the “TC50 (6d)” value is listed as >100. Also, in the series on RSV [2], the concentration for half-maximal inhibition (IC50) turned out to be 3 µM.
With `COc1cc(S(C)(=O)=O)ccc1C(=O)NC1N=C(c2ccccc2)c2ccccc2NC1=O` (centres unmarked) [Example 75a, 4-Methanesulfonyl-2-methoxy-N-(2-oxo-5-phenyl-2,3-dihydro-1H-benzo[e][1,4]diazepin-3-yl)-benzamide], in the series with RSV [1] (setting [3]), the IC50 is 2.4 µM.
In the case of `CS(=O)(=O)c1ccc(C(=O)NC2N=C(c3ccccc3)c3ccccc3NC2=O)c(Cl)c1` (centres unmarked) [Example 112, 2-Chloro-4-methanesulfonyl-N-(2-oxo-5-phenyl-2,3-dihydro-1H-benzo[e][1,4]diazepin-3-yl)-benzamide], in the series with Vero cells, the “TC50 (2d)” value is >100 and the “TC50 (6d)” value was >100. The IC50 in the series on RSV [2] worked out at 1.5 µM.
